What was measured:
Plasmodium falciparum [1] = assay: Antiplasmodial activity against Plasmodium falciparum Dd2 assessed as reduction in parasitic growth incubated for 48 hrs by SYBR Green staining based fluorescence analysis; format: functional, organism-based; details: Dd2, 48 h
Plasmodium falciparum [2] = assay: Antiplasmodial activity against Plasmodium falciparum NF54; format: functional, organism-based
[3] = Cytotoxicity against African green monkey Vero cells by MTT assay; format: toxicity, cell-based; details: African green monkey (Chlorocebus sabaeus)
Plasmodium falciparum [4] = assay: Antimalarial activity against Plasmodium falciparum Dd2 assessed as reduction in parasitic growth; format: functional, organism-based
Plasmodium falciparum [5] = assay: Antiplasmodial activity against Plasmodium falciparum 3D7 assessed as inhibition of parasitic growth; format: functional, organism-based
Plasmodium falciparum [6] = assay: Antimalarial activity against Plasmodium falciparum K1 assessed as reduction in parasitic growth incubated for 48 hrs by Giemsa-staining counting based microscopic analysis; format: functional, organism-based; details: K1, 48 h
[7] = Cytotoxicity against African green monkey Vero cells assessed as reduction in cell viability incubated for 48 hrs by MTT assay; format: toxicity, cell-based; details: chlorocebus sabaeus
Plasmodium falciparum [8] = assay: Antimalarial activity against Plasmodium falciparum 3D7 assessed as reduction in parasite growth incubated for 48 hrs by Giemsa-staining counting based microscopic analysis; format: functional, organism-based; details: 3D7, 48 h
Plasmodium falciparum [9] = assay: Antiplasmodial activity against Plasmodium falciparum K1; format: functional, organism-based
Plasmodium berghei = assay: Antimalarial activity against Plasmodium berghei ANKA; format: functional, organism-based
Plasmodium falciparum [10] = assay: Antimalarial activity against Plasmodium falciparum D6 assessed as reduction in parasite growth incubated for 48 hrs by LDH assay; format: functional, organism-based; details: D6, 48 h
Plasmodium falciparum [11] = assay: Antimalarial activity against Plasmodium falciparum W2 assessed as reduction in parasite growth incubated for 48 hrs by LDH assay; format: functional, organism-based; details: W2, 48 h
[12] = Cytotoxicity against African green monkey Vero cells; format: toxicity, cell-based; details: chlorocebus sabaeus
Plasmodium falciparum [13] = assay: Antiplasmodial activity against Plasmodium falciparum 3D7 assessed as reduction in parasite growth by Lactate dehydrogenase assay; format: functional, organism-based
Plasmodium falciparum [14] = assay: Antimalarial activity against Plasmodium falciparum assessed as reduction in parasite growth incubated for 48 hrs by Giemsa staining based analysis; format: functional, organism-based
[15] = Cytotoxicity against African monkey Vero cells assessed as reduction in cell viability incubated for 72 hrs by MTT assay; format: toxicity, cell-based; details: chlorocebus sabaeus
Plasmodium falciparum [16] = assay: Antimalarial activity against Plasmodium falciparum assessed as parasitic growth inhibition; format: functional, organism-based
Plasmodium falciparum [17] = assay: Antimalarial activity against chloroquine-sensitive Plasmodium falciparum NF54 assessed as reduction in cell growth; format: functional, organism-based
HepG2 = assay: Cytotoxicity against human HepG2 cells assessed as reduction in cell viability incubated for 24 hrs by MTT assay; format: functional
Plasmodium falciparum [18] = assay: Antimalarial activity against multi-drug resistant Plasmodium falciparum K1 assessed as reduction in parasite growth incubated for 48 hrs by SYBR green assay; format: functional, organism-based; details: K1, 48 h
Plasmodium falciparum [19] = assay: Antimalarial activity against chloroquine-sensitive Plasmodium falciparum 3D7 assessed as reduction in parasite growth incubated for 48 hrs by SYBR green assay; format: functional, organism-based; details: 3D7, 48 h

Molecule COc1ccc2nc(/C=C/c3ccncc3)cc(N3CCCCC3)c2c1 has an IC50 (Plasmodium falciparum [1]) of 4900 nM.
In the case of CC1(C)c2ccccc2-c2cc(Cl)c(NC(=O)C(=O)NCCCNc3ccnc4cc(Cl)ccc34)cc21, the IC50 (Plasmodium falciparum [2]) is reported as 326 nM and the IC50 [3] is reported as 17700 nM.
Molecule CC(CCCNCc1ccc(-c2csc3ccc(F)cc23)cc1)Nc1ccnc2cc(Cl)ccc12 (stereo unspecified) has an IC50 (Plasmodium falciparum [4]) of 187 nM and an IC50 (Plasmodium falciparum [5]) of 82.3 nM.
In the case of CCOC(=O)c1nn(CCNc2ccnc3cc(Cl)ccc23)c2c1C(C(C)C)C(C#N)=C(N)O2 (stereo unspecified), the EC50 (Plasmodium falciparum [6]) is reported as 300 nM, the CC50 at 48 h [7] is reported as 86100 nM and the EC50 (Plasmodium falciparum [8]) is reported as 3390 nM.
Work on O=[N+]([O-])c1ccc(Nc2ccnc3cc(Cl)ccc23)cc1 yielded an IC50 (Plasmodium falciparum [9]) of 5510 nM.
COc1ccc2c(c1)C[C@H](Nc1ccnc3cc(Cl)ccc13)C2 gave an IC50 (Plasmodium berghei) of 590 nM.
COc1ccc2nc(/C=C/c3ccncc3)cc(NC3CCCCC3)c2c1 gave an IC50 (Plasmodium falciparum [1]) of 277 nM.
In the case of Clc1ccc2c(NC3Cc4ccccc4C3)ccnc2c1, the IC50 (Plasmodium berghei) is reported as 600 nM.
For O=[N+]([O-])c1ccc(NNc2ccnc3cc(Cl)ccc23)cc1, the IC50 (Plasmodium falciparum [9]) was 3260 nM.
With N=C(N=C(N)N)SCCCCNc1cc(C(F)(F)F)nc2c(C(F)(F)F)cccc12 the IC50 (Plasmodium falciparum [10]) was > 8930 nM, the IC50 (Plasmodium falciparum [11]) was > 8930 nM and the CC50 [12] was > 8930 nM.
CCOC(=O)/C=C/c1cccc(Nc2ccnc3cc(Cl)ccc23)c1 gave an IC50 (Plasmodium falciparum [13]) of 14400 nM.
With CC1=NC(=S)N(Nc2ccnc3cc(Cl)ccc23)C(=O)C1 the IC50 (Plasmodium falciparum [14]) was 11900 nM.
Molecule Fc1ccc2scc(-c3ccc(CNCCCNc4ccnc5ccccc45)cc3)c2c1 has an IC50 (Plasmodium falciparum [4]) of 73.3 nM and an IC50 (Plasmodium falciparum [5]) of 18.8 nM.
CCOC(=O)c1nn(CCNc2ccnc3cc(Cl)ccc23)c2c1C(c1ccc(O)cc1)C(C#N)=C(N)O2 (stereo unspecified) gave an EC50 (Plasmodium falciparum [6]) of 7120 nM, a CC50 at 48 h [7] of 9240 nM and an EC50 (Plasmodium falciparum [8]) of 26 nM.
COc1ccc2nc(/C=C/c3ccncc3)cc(N3CCCC3)c2c1 showed an IC50 (Plasmodium falciparum [1]) of 367 nM.
Work on Cc1ccc(C(=O)NNc2ccnc3cc(Cl)ccc23)cc1 yielded an IC50 (Plasmodium falciparum [9]) of 920 nM.
Molecule CCN(CC)CCCC(C)Nc1ccnc2cc(Cl)ccc12 (stereo unspecified) [CHLOROQUINE] has a CC50 at 72 h [15] of 86800 nM, an EC50 (Plasmodium falciparum [6]) of 330 nM and an EC50 (Plasmodium falciparum [8]) of 2 nM.
COc1ccc2nc(/C=C/c3ccncc3)cc(Nc3ccccc3)c2c1 showed an IC50 (Plasmodium falciparum [1]) of 965 nM.
Molecule Clc1ccc2c(Nc3ccncc3)ccnc2c1 has an IC50 (Plasmodium falciparum [16]) of 4230 nM.
COc1ccc(Nc2ccnc3cc(Cl)ccc23)cc1 gave an IC50 (Plasmodium falciparum [9]) of 4870 nM.
With CC(C)(C)NC(=O)/C=C/c1cccc(Nc2ccnc3cc(Cl)ccc23)c1 the IC50 (Plasmodium falciparum [13]) was 14800 nM.
Molecule CN(CCCCCCCCNc1ccnc2ccccc12)Cc1ccc(-c2ccc(-c3ccc(C#N)cc3)s2)cc1 has an IC50 (Plasmodium falciparum [4]) of 71.5 nM and an IC50 (Plasmodium falciparum [5]) of 120 nM.
Molecule Nc1ccccc1Nc1ccnc2cc(Cl)ccc12 has an IC50 (Plasmodium falciparum [14]) of 35300 nM.
N#Cc1ccc(-c2ccc(-c3ccc(CNCCCCCCCCNc4ccnc5cc(Cl)ccc45)cc3)s2)cc1 gave an IC50 (Plasmodium falciparum [4]) of 174 nM and an IC50 (Plasmodium falciparum [5]) of 97.3 nM.
For COc1ccc2nc(/C=C/c3ccncc3)cc(N3CCN(CCO)CC3)c2c1, the IC50 (Plasmodium falciparum [1]) was > 10000 nM.
Work on COc1ccc2nc(/C=C/c3ccncc3)cc(NCCN(C)C)c2c1 yielded an IC50 (Plasmodium falciparum [1]) of 33 nM.
With Clc1ccc2c(Nc3cccnc3)ccnc2c1 the IC50 (Plasmodium falciparum [16]) was 4350 nM.
For O=C(CNCCCNc1ccnc2cc(Cl)ccc12)Nc1cc2c(cc1Cl)-c1ccccc1C2, the IC50 (Plasmodium falciparum [2]) was 346 nM and the IC50 [3] was 11200 nM.
Molecule C/C(=N/c1ccccc1Nc1ccnc2cc(Cl)ccc12)c1ccc2ccccc2c1 has an IC50 (Plasmodium falciparum [14]) of 77600 nM.
C#Cc1ccc(-c2cn(CCNc3ccnc4cc(Cl)ccc34)nn2)cc1F showed an IC50 (Plasmodium falciparum [17]) of 150 nM.
For O=C(CNCCCNc1ccnc2cc(Cl)ccc12)Nc1cc2c(cc1Cl)-c1ccccc1C21CCCC1, the IC50 (Plasmodium falciparum [2]) was 204 nM and the IC50 [3] was 12500 nM.
With Clc1ccc2c(Nc3nc[nH]n3)ccnc2c1 the IC50 (Plasmodium falciparum [14]) was 42600 nM.
Molecule COc1cc2c(cc1OC)CC(Nc1ccnc3cc(Cl)ccc13)C2 has an IC50 (Plasmodium berghei) of 390 nM.
With CCN(CC)CC#CCNc1ccnc2cc(Cl)ccc12 the MLD50 (HepG2) was 1481 µM, the IC50 (Plasmodium falciparum [18]) was 50 nM and the IC50 (Plasmodium falciparum [19]) was 46 nM.
With Clc1ccc2c(NCCNCc3csc4ccccc34)ccnc2c1 the IC50 (Plasmodium falciparum [4]) was 14.4 nM and the IC50 (Plasmodium falciparum [5]) was > 500 nM.
O=C(NNc1ccnc2cc(Cl)ccc12)c1cc(-c2ccccc2)nc2ccccc12 showed an IC50 (Plasmodium falciparum [9]) of 600 nM.
For O=C(/C=C/c1cccc(Nc2ccnc3cc(Cl)ccc23)c1)OC1CCCCC1, the IC50 (Plasmodium falciparum [13]) was 16400 nM.
Molecule COc1ccc(NNc2ccnc3cc(Cl)ccc23)cc1 has an IC50 (Plasmodium falciparum [9]) of 3480 nM.
